#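 The compound was tested at five concentrations on cells cultured in 96-well plates, with a 48-hour exposure period. Here, GI50 denotes the concentration required for 50% inhibition of growth. TGI: concentration producing complete growth inhibition.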
# Columns and labels:
# Assay in all cases: growth of human tumour cells (NCI), 48 h
# MOLT-4 leukemia = test system: MOLT-4 leukemia
# SK-MEL-2 melanoma = test system: SK-MEL-2 melanoma
# SF-268 CNS = test system: SF-268 CNS
# NCI-H460 lung = test system: NCI-H460 lung
# ACHN renal = test system: ACHN renal
# HT29 colon = test system: HT29 colon
# SW-620 colon = test system: SW-620 colon
# PC-3 prostate = test system: PC-3 prostate
# MALME-3M melanoma = test system: MALME-3M melanoma
# SNB-75 CNS = test system: SNB-75 CNS
# A498 renal = test system: A498 renal
# HL-60(TB) leukemia = test system: HL-60(TB) leukemia
# SF-295 CNS = test system: SF-295 CNS
# HS 578T breast = test system: HS 578T breast
# HCT-116 colon = test system: HCT-116 colon
# A549 NSCLC = test system: A549 NSCLC
# HOP-62 NSCLC = test system: HOP-62 NSCLC
# NCI-H522 lung = test system: NCI-H522 lung
# HCC-2998 colon = test system: HCC-2998 colon
# T-47D breast = test system: T-47D breast
# HCT-15 colon = test system: HCT-15 colon
# SK-MEL-28 melanoma = test system: SK-MEL-28 melanoma
# NCI/ADR-RES ovarian = test system: NCI/ADR-RES ovarian
# M14 melanoma = test system: M14 melanoma
# RPMI-8226 leukemia = test system: RPMI-8226 leukemia
# RXF 393 renal = test system: RXF 393 renal
# IGROV1 ovarian = test system: IGROV1 ovarian
# NCI-H23 lung = test system: NCI-H23 lung
# SN12C renal = test system: SN12C renal
# K-562 leukemia = test system: K-562 leukemia
# UO-31 renal = test system: UO-31 renal
# CCRF-CEM leukemia = test system: CCRF-CEM leukemia
# UACC-62 melanoma = test system: UACC-62 melanoma
# MDA-MB-231 breast = test system: MDA-MB-231 breast
# 786-0 renal = test system: 786-0 renal
# SK-MEL-5 melanoma = test system: SK-MEL-5 melanoma
# DU-145 prostate = test system: DU-145 prostate
# SR leukemia = test system: SR leukemia
# MDA-N = test system: MDA-N
# EKVX NSCLC = test system: EKVX NSCLC
# UACC-257 melanoma = test system: UACC-257 melanoma
# SK-OV-3 ovarian = test system: SK-OV-3 ovarian
# OVCAR-4 ovarian = test system: OVCAR-4 ovarian
# U251 CNS = test system: U251 CNS
# CAKI-1 renal = test system: CAKI-1 renal
# NCI-H226 lung = test system: NCI-H226 lung
# COLO 205 colon = test system: COLO 205 colon
# SNB-19 CNS = test system: SNB-19 CNS
# OVCAR-3 ovarian = test system: OVCAR-3 ovarian
# MDA-MB-435 = test system: MDA-MB-435
# OVCAR-8 ovarian = test system: OVCAR-8 ovarian
# SF-539 CNS = test system: SF-539 CNS
# OVCAR-5 ovarian = test system: OVCAR-5 ovarian
# HOP-92 NSCLC = test system: HOP-92 NSCLC
# TK-10 renal = test system: TK-10 renal
# KM12 colon = test system: KM12 colon
# BT-549 breast = test system: BT-549 breast
# MCF7 breast = test system: MCF7 breast
# LOX IMVI melanoma = test system: LOX IMVI melanoma
compound,measurement,setting,value
O=C(CP(=O)(O)O)NC(CC(=O)OCc1ccccc1)C(=O)OCc1ccccc1 (stereo not given),TGI,MOLT-4 leukemia,> 100 µM
same,TGI,SK-MEL-2 melanoma,> 100 µM
same,TGI,SF-268 CNS,> 100 µM
same,TGI,NCI-H460 lung,> 100 µM
same,TGI,ACHN renal,> 100 µM
same,TGI,HT29 colon,> 100 µM
same,TGI,SW-620 colon,> 100 µM
same,TGI,PC-3 prostate,> 100 µM
same,TGI,MALME-3M melanoma,> 100 µM
same,TGI,SNB-75 CNS,> 100 µM
same,TGI,A498 renal,> 100 µM
same,TGI,HL-60(TB) leukemia,> 100 µM
same,TGI,SF-295 CNS,> 100 µM
same,TGI,HS 578T breast,> 100 µM
same,TGI,HCT-116 colon,> 100 µM
same,TGI,A549 NSCLC,> 100 µM
same,TGI,HOP-62 NSCLC,> 100 µM
same,TGI,NCI-H522 lung,> 100 µM
same,TGI,HCC-2998 colon,> 100 µM
same,TGI,T-47D breast,> 100 µM
same,TGI,HCT-15 colon,> 100 µM
same,TGI,SK-MEL-28 melanoma,> 100 µM
same,TGI,NCI/ADR-RES ovarian,> 100 µM
same,TGI,M14 melanoma,> 100 µM
same,TGI,RPMI-8226 leukemia,> 100 µM
same,TGI,RXF 393 renal,> 100 µM
same,TGI,IGROV1 ovarian,> 100 µM
same,TGI,NCI-H23 lung,> 100 µM
same,TGI,SN12C renal,> 100 µM
same,TGI,K-562 leukemia,> 100 µM
same,TGI,UO-31 renal,> 100 µM
same,TGI,CCRF-CEM leukemia,> 100 µM
same,TGI,UACC-62 melanoma,> 100 µM
same,TGI,MDA-MB-231 breast,> 100 µM
same,TGI,786-0 renal,> 100 µM
same,TGI,SK-MEL-5 melanoma,> 100 µM
same,TGI,DU-145 prostate,> 100 µM
same,TGI,SR leukemia,> 100 µM
same,TGI,MDA-N,> 100 µM
same,TGI,EKVX NSCLC,> 100 µM
same,TGI,UACC-257 melanoma,> 100 µM
same,TGI,SK-OV-3 ovarian,> 100 µM
same,TGI,OVCAR-4 ovarian,> 100 µM
same,TGI,U251 CNS,> 100 µM
same,TGI,CAKI-1 renal,> 100 µM
same,TGI,NCI-H226 lung,> 100 µM
same,TGI,COLO 205 colon,> 100 µM
same,TGI,SNB-19 CNS,> 100 µM
same,TGI,OVCAR-3 ovarian,> 100 µM
same,TGI,MDA-MB-435,> 100 µM
same,TGI,OVCAR-8 ovarian,> 100 µM
same,TGI,SF-539 CNS,> 100 µM
same,TGI,OVCAR-5 ovarian,> 100 µM
same,TGI,HOP-92 NSCLC,> 100 µM
O=C(CO[N+](=O)[O-])Nc1ccc(C(=O)/C=C/c2ccc(Cl)cc2)cc1,GI50,MOLT-4 leukemia,4.68 µM
same,TGI,MOLT-4 leukemia,69.4 µM
same,GI50,SK-MEL-2 melanoma,9.69 µM
same,TGI,SK-MEL-2 melanoma,23.3 µM
same,GI50,SF-268 CNS,2.62 µM
same,TGI,SF-268 CNS,11.7 µM
same,GI50,NCI-H460 lung,12.7 µM
same,TGI,NCI-H460 lung,54.9 µM
same,GI50,ACHN renal,3.3 µM
same,TGI,ACHN renal,17 µM
same,GI50,HT29 colon,2.36 µM
same,TGI,HT29 colon,6.36 µM
same,GI50,SW-620 colon,1.44 µM
same,TGI,SW-620 colon,2.88 µM
same,GI50,PC-3 prostate,2.74 µM
same,TGI,PC-3 prostate,14.8 µM
same,GI50,MALME-3M melanoma,2.13 µM
same,TGI,MALME-3M melanoma,6.61 µM
same,GI50,SNB-75 CNS,3.19 µM
same,TGI,SNB-75 CNS,17.6 µM
same,GI50,TK-10 renal,8.37 µM
same,TGI,TK-10 renal,25.1 µM
same,GI50,A498 renal,15.4 µM
same,TGI,A498 renal,54.9 µM
same,GI50,HL-60(TB) leukemia,3.59 µM
same,TGI,HL-60(TB) leukemia,> 100 µM
same,GI50,SF-295 CNS,5.82 µM
same,TGI,SF-295 CNS,29.2 µM
same,GI50,HS 578T breast,2.85 µM
same,TGI,HS 578T breast,14.2 µM
same,GI50,HCT-116 colon,0.298 µM
same,TGI,HCT-116 colon,1.09 µM
same,GI50,A549 NSCLC,5.71 µM
same,TGI,A549 NSCLC,20.6 µM
same,GI50,KM12 colon,1.54 µM
same,TGI,KM12 colon,3.1 µM
same,GI50,HOP-62 NSCLC,3.11 µM
same,TGI,HOP-62 NSCLC,9.73 µM
same,GI50,NCI-H522 lung,2.31 µM
same,TGI,NCI-H522 lung,8.37 µM
same,GI50,BT-549 breast,1.86 µM
same,TGI,BT-549 breast,5 µM
same,GI50,HCC-2998 colon,1.75 µM
same,TGI,HCC-2998 colon,3.64 µM
same,GI50,T-47D breast,3.26 µM
same,TGI,T-47D breast,14.9 µM
same,GI50,HCT-15 colon,2.03 µM
same,TGI,HCT-15 colon,6.53 µM
same,GI50,SK-MEL-28 melanoma,4.96 µM
same,TGI,SK-MEL-28 melanoma,18.1 µM
same,GI50,NCI/ADR-RES ovarian,3.87 µM
same,TGI,NCI/ADR-RES ovarian,> 100 µM
same,GI50,M14 melanoma,2.05 µM
same,TGI,M14 melanoma,4.96 µM
same,GI50,RPMI-8226 leukemia,1.41 µM
same,TGI,RPMI-8226 leukemia,8.36 µM
same,GI50,MCF7 breast,0.666 µM
same,TGI,MCF7 breast,6.44 µM
same,GI50,RXF 393 renal,4.82 µM
same,TGI,RXF 393 renal,17.8 µM
same,GI50,IGROV1 ovarian,13.4 µM
same,TGI,IGROV1 ovarian,30 µM
same,GI50,NCI-H23 lung,4.55 µM
same,TGI,NCI-H23 lung,22.1 µM
same,GI50,SN12C renal,3.14 µM
same,TGI,SN12C renal,14.1 µM
same,GI50,K-562 leukemia,2.6 µM
same,TGI,K-562 leukemia,> 100 µM
same,GI50,UO-31 renal,1.52 µM
same,TGI,UO-31 renal,12.1 µM
same,GI50,CCRF-CEM leukemia,2.73 µM
same,TGI,CCRF-CEM leukemia,16.5 µM
same,GI50,UACC-62 melanoma,2.76 µM
same,TGI,UACC-62 melanoma,11 µM
same,GI50,MDA-MB-231 breast,5.39 µM
same,TGI,MDA-MB-231 breast,21.2 µM
same,GI50,786-0 renal,11.6 µM
same,TGI,786-0 renal,48 µM
same,GI50,SK-MEL-5 melanoma,4.23 µM
same,TGI,SK-MEL-5 melanoma,15.3 µM
same,GI50,DU-145 prostate,3.41 µM
same,TGI,DU-145 prostate,13.5 µM
same,GI50,SR leukemia,3.65 µM
same,TGI,SR leukemia,> 100 µM
same,GI50,EKVX NSCLC,15 µM
same,TGI,EKVX NSCLC,74.6 µM
same,GI50,UACC-257 melanoma,4.33 µM
same,TGI,UACC-257 melanoma,15.9 µM
same,GI50,SK-OV-3 ovarian,10.1 µM
same,TGI,SK-OV-3 ovarian,65.9 µM
same,GI50,OVCAR-4 ovarian,4.06 µM
same,TGI,OVCAR-4 ovarian,21 µM
same,GI50,LOX IMVI melanoma,1.59 µM
same,TGI,LOX IMVI melanoma,3.51 µM
same,GI50,U251 CNS,1.48 µM
same,TGI,U251 CNS,3.15 µM
same,GI50,CAKI-1 renal,11.8 µM
same,TGI,CAKI-1 renal,54.5 µM
same,GI50,NCI-H226 lung,5.15 µM
same,TGI,NCI-H226 lung,29 µM
same,GI50,COLO 205 colon,2.57 µM
same,TGI,COLO 205 colon,6.09 µM
same,GI50,SNB-19 CNS,4.11 µM
same,TGI,SNB-19 CNS,18.4 µM
same,GI50,OVCAR-3 ovarian,2.22 µM
same,TGI,OVCAR-3 ovarian,6.55 µM
same,GI50,MDA-MB-435,2.96 µM
same,TGI,MDA-MB-435,11.2 µM
same,GI50,OVCAR-8 ovarian,3.24 µM
same,TGI,OVCAR-8 ovarian,14 µM
same,GI50,SF-539 CNS,2.52 µM
same,TGI,SF-539 CNS,8.81 µM
same,GI50,OVCAR-5 ovarian,14.8 µM
same,TGI,OVCAR-5 ovarian,36 µM
same,GI50,HOP-92 NSCLC,2.95 µM
same,TGI,HOP-92 NSCLC,15.2 µM

# — PubChem BioAssay (NCI)
